# Test results: patent US10420831B2, “Inactivation of viruses by delipidation” (priority 2016, dated 2019)
# Like-named read-outs stand apart in the source and are kept apart here.
# Columns and labels:
# [1] = test system: human influenza virus H1N1 A/WSN/33 strain; assay type: cell-based
# [2] = test system: human influenza virus H1N1 A/WSN/33 strain; assay: Hemagglutination (HA) activity of treated IFV with chicken red blood cells
# Experimental: Hemagglutination (HA) activity is determined as follows. Freshly isolated chicken blood is washed three times with PBS, and the red blood cells (RBC) are resuspended in PBS at a concentration of 1%. Virus dilutions (50 μL) are made in PBS and mixed with 50 μL of the RBC suspension. The mixture is added to individual wells in a 96-well plate and the RBC are allowed to settle for 45 minutes. The wells are judged to be HA negative (i.e. no agglutination of RBC) if a dot or pellet of RBC is present, and a well is judged to be positive if a smooth suspension of RBC is present.
# In addition to MBCD, another lipid solvent, diisopropyl ether (DIPE) is used to delipidate IFV. […] After a brief centrifugation at 2,000×g for 3 minutes, visible solvent is removed, and the aqueous materials are left to dry in a fume hood for 20 minutes. The samples are then centrifuged at 200,000×g for 30 minutes to recover virus particles.
smiles,measurement,setting,value
"CC(C)OC(C)C [DIPE, diisopropyl ether]","IFV infectivity reduced, compared to the mock-treatment","[1]; 12% DIPE, 37° C., 30 minutes, […]",32 fold
same,PFU/mL,"[1]; IFV, 2% DIPE, 37° C., 30 minutes",1.2 × 10^8 PFU/mL
same,PFU/mL,"[1]; IFV, 4% DIPE, 37° C., 30 minutes",1.4 × 10^8 PFU/mL
same,PFU/mL,"[1]; IFV, 8% DIPE, 37° C., 30 minutes",9.0 × 10^7 PFU/mL
same,decrease in infectivity in vitro,"[1]; IFV, 10% DIPE, 30 minute treatment",~120 fold
same,PFU/mL,"[1]; IFV, 10% DIPE, end-over-end rotation at 37° C. for 30 minutes",1.0 × 10^5 PFU/mL
same,PFU/mL,"[1]; IFV, 12% DIPE, 37° C., 30 minutes",2.8 × 10^7 PFU/mL
same,HA units,"[2]; 2% DIPE, 37° C., 30 minutes",32 HA units
same,HA units,"[2]; 4% DIPE, 37° C., 30 minutes",32 HA units
same,HA units,"[2]; 8% DIPE, 37° C., 30 minutes",32 HA units
same,effect on HA activity (in words),"[2]; 10% DIPE, 30 minutes",measurably reduced
same,HA units,"[2]; 10% DIPE, end-over-end rotation at 37° C. for 30 minutes",16 HA units
same,HA units,"[2]; 12% DIPE, 37° C., 30 minutes",16 HA units
